{"source": "patent US11648316B2", "about": "“Oral pharmaceutical composition containing pemetrexed and production method thereof” (ICURE BNP CO., LTD., priority 2017, dated 2023)", "key": {"[1]": {"assay": "Artificial intestinal membrane permeability (PAMPA) of nanoemulsion with quercetin, Example 8", "assay_type": "in vitro ADME", "conditions": "PBS pH 6.8, quercetin 400 μg/ml, room temperature, 5 hr, analyte quercetin", "protocol": "The intestinal membrane permeability of pemetrexed (PMX), quercetin and the w/o/w secondary nanoemulsions including the mixture of hydroxypropyl beta-cyclodextrin, PMX/DCK ion-binding complex and poloxamer (HP-beta CD/PMX/DCK/P188) prepared in Example 5 and quercetin was evaluated using an artificial intestinal membrane (PAMPA; BD Biosciences, San Jose, Calif., USA).\n(§1) Each sample was diluted with phosphate-buffered saline (PBS, pH 6.8) so that the concentration of pemetrexed was 200 μg/ml and the concentration of quercetin was 400 μg/ml, and was then added in an amount of 200 μl to the donor compartment of each well of a PAMPA plate, each acceptor compartment thereof was added with 300 μl of phosphate-buffered saline (PBS, pH 6.8), and the donor compartment and the acceptor compartment were linked and then allowed to stand at room temperature for 5 hr, after which the sample was recovered from the donor compartment and the acceptor compartment of each well of the PAMPA plate, and the concentration of the permeated drug was measured as follows.\nThe concentrations of PMX and PMX/DCK were analyzed by introducing 20 μl of the sample into an HPLC system with a C18 column (4.6×250 mm, 5 μm, 100 □) and allowing a mixture of purified water (pH 3.2, adjusted with phosphoric acid) and acetonitrile at 80:20 (v/v) as a mobile phase to flow at a flow rate of 1.0 ml/min. […]"}, "[2]": {"assay": "In-vivo bioavailability of oral nanoemulsion in rats, Example 11", "conditions": "rat"}, "[3]": {"assay": "in vivo", "conditions": "rat", "procedure": "(§2) Separately, in order to evaluate oral bioavailability, a solution of pemetrexed in distilled water was injected in an amount of 200 μl into rats through the tail vein thereof. Blood samples (200 μl) were collected at scheduled times after individual drug administrations and immediately mixed with 50 μl of a sodium citrate (3.8%) solution. The collected blood samples were centrifuged at 2,500×g and 4° C. for 15 min, pemetrexed in plasma was extracted using a solid-phase extraction (SPE) cartridge, and the concentration of pemetrexed was measured through liquid chromatography/mass spectrometry (LC/MS).\n(§3) Each value represents mean±standard deviation (n=4 in each group)."}, "[4]": {"assay": "Artificial intestinal membrane permeability (PAMPA), Example 7", "assay_type": "in vitro ADME", "conditions": "PBS pH 6.8, pemetrexed 200 μg/ml, room temperature, 5 hr", "excerpt": "The intestinal membrane permeability of pemetrexed (PMX), the mixture of hydroxypropyl beta-cyclodextrin and pemetrexed (HP-beta CD/PMX), the mixture of hydroxypropyl beta-cyclodextrin and PMX/DCK ion-binding complex (HP-beta CD/PMX/DCK), the mixture of hydroxypropyl beta-cyclodextrin, PMX/DCK ion-binding complex and poloxamer (HP-beta CD/PMX/DCK/P188) prepared in Example 4, and the w/o/w nanoemulsion including the mixture of hydroxypropyl beta-cyclodextrin, PMX/DCK ion-binding complex and poloxamer (HP-beta CD/PMX/DCK/P188) prepared in Example 5 was evaluated using an artificial intestinal membrane (PAMPA; BD Biosciences, San Jose, Calif., USA).\nas §1, with “was 200 μg/ml, and” for “was 200 μg/ml and the concentration of quercetin was 400 μg/ml, and”, “the PAMPA plate and the” for “the PAMPA plate, and the”, “as follows. […]” for “as follows.”\nThe effective permeability (Pe) of each drug was calculated using the following equation. […]"}, "[5]": {"conditions": "rat, in vivo, iv, 5 mg/kg", "procedure": "as §2, §3"}, "[6]": {"system": "Caco-2 cell monolayer membrane", "assay": "Intestinal cell membrane permeability, Caco-2 cell monolayer, Example 9", "assay_type": "in vitro ADME", "conditions": "Caco-2 monolayer, apical to basolateral, pemetrexed 200 μg/ml in HBSS, 37° C., up to 5 hr", "protocol": "Caco-2 cells were treated at 3×10^5 cells in each well of a 12-well Transwell (pore size: 0.4 μm, surface area: 1.12 cm^2; Corning, N.Y., USA). Dulbecco's modified Eagles medium (DMEM; Lonza, Basel, Switzerland) containing 10% fetal bovine serum (FBS; Gibco™, Thermo Fisher Scientific) and 1% penicillin/streptomycin (Gibco™) was replaced every 48 hr for 21 days to 29 days, and a Caco-2 cell membrane having a transepithelial electrical resistance (TEER) of 350 Ωcm^2 or more was used for in-vitro intestinal cell membrane permeability tests.\nSpecifically, the culture medium was removed, culture was performed at 37° C. for 20 min with 0.5 ml of a Hanks' balanced salt solution (HESS), HBSS was removed, and each sample was diluted with HBSS so that the concentration of pemetrexed was 200 μg/ml, after which each sample thus diluted was added in an amount of 0.5 ml to the apical compartment of the Transwell, and the basolateral compartment of the Transwell was added with 1.5 ml of HBSS, followed by culturing at 37° C. After sample treatment, 100 μl of the sample was collected from the basolateral compartment of each well at 0.5, 1, 2, 3, 4 and 5 hr and then filtered with a membrane filter, after which the concentrations of PMX and the PMX/DCK ion-binding complex that permeated the intestinal cell membrane were measured using the same HPLC system as in Example 7. […]"}}, "note": "Like-named read-outs stand apart in the source and are kept apart here."}
{"smiles": "O=c1c(O)c(-c2ccc(O)c(O)c2)oc2cc(O)cc(O)c12", "note": "[Quercetin, quercetin]", "values": [{"measurement": "Permeability (effective permeability Pe of quercetin)", "setting": "[1]", "value": "4.51 ± 5.10 ×10^−6, cm/s"}]}
{"smiles": "Nc1nc2[nH]cc(CCc3ccc(C(=O)N[C@@H](CCC(=O)O)C(=O)O)cc3)c2c(=O)[nH]1", "note": "[PMX, Pemetrexed]", "values": [{"measurement": "Bioavailability (oral, compared to intravenous injection)", "setting": "[2]", "value": 12.0, "unit": "%"}, {"measurement": "AUCinf", "setting": "[2]; iv, 10 mg/kg", "value": "29,390 ± 4,844 ng · h/ml"}, {"measurement": "AUClast", "setting": "[2]; iv, 10 mg/kg", "value": "31,340 ± 5,342 ng · h/ml"}, {"measurement": "Cmax", "setting": "[2]; iv, 10 mg/kg", "value": "32,220 ± 13,900 ng/ml"}, {"measurement": "T1/2", "setting": "[2]; iv, 10 mg/kg", "value": "0.57 ± 0.07", "unit": "h"}, {"measurement": "bioavailability", "setting": "[2]; iv, 10 mg/kg", "value": 100, "unit": "%"}, {"measurement": "AUCinf", "setting": "[2]; po, 20 mg/kg", "value": "14,300 ± 2,272 ng · h/ml"}, {"measurement": "AUClast", "setting": "[2]; po, 20 mg/kg", "value": "7,546±938 ng · h/ml"}, {"measurement": "Cmax", "setting": "[2]; po, 20 mg/kg", "value": "1,487±332 ng/ml"}, {"measurement": "Tmax", "setting": "[2]; po, 20 mg/kg", "value": "2.75 ± 3.50", "unit": "h"}, {"measurement": "half-life", "setting": "[2]; po, 20 mg/kg", "value": "7.55 ± 0.94", "unit": "h"}, {"measurement": "bioavailability", "setting": "[3]", "value": 1.49, "unit": "%"}, {"measurement": "bioavailability", "setting": "[3]; iv, 5 mg/kg", "value": 100, "unit": "%"}, {"measurement": "AUC(0-inf)", "setting": "[3]; po, 50 mg/kg", "value": 2560, "unit": "ng·h/mL"}, {"measurement": "AUC(0-t)", "setting": "[3]; po, 50 mg/kg", "value": 1390, "unit": "ng·h/mL"}, {"measurement": "Cmax", "setting": "[3]; po, 50 mg/kg", "value": "452 ± 221", "unit": "ng/mL"}, {"measurement": "Tmax", "setting": "[3]; po, 50 mg/kg", "value": "0.83 ± 0.58", "unit": "h"}, {"measurement": "half-life", "setting": "[3]; po, 50 mg/kg", "value": "6.06 ± 1.83", "unit": "h"}, {"measurement": "Permeability (effective permeability Pe of pemetrexed)", "setting": "[4]", "value": "3.73 ± 1.15 ×10^−6, cm/s"}, {"measurement": "AUCinf", "setting": "[5]", "value": "9,414.5 ± 4,223.6 ng · h/ml"}, {"measurement": "AUClast", "setting": "[5]", "value": "9,377.5 ± 4,169.4 ng · h/ml"}, {"measurement": "Cmax", "setting": "[5]", "value": "15,318 ± 6100.3 ng/ml"}, {"measurement": "T1/2", "setting": "[5]", "value": "0.35 ± 0.08", "unit": "h"}, {"measurement": "Permeability (apparent permeation coefficient Papp)", "setting": "[6]", "value": "0.50 ± 0.09 ×10^−6, cm/s"}]}
